Test results taken from ChEMBL document CHEMBL3763090, “A pharmacological perspective on the use of Brazilian Red Propolis and its isolated compounds against human diseases” (Eur J Med Chem, 2016).

Assay: Antioxidant activity assessed as inhibition of linoleic acid oxidation at 90 ug/ml measured over 60 mins by beta-carotene bleaching test
Assay type: physicochemical
Settings: 1 h

## COc1ccc([C@@H]2COc3cc(O)ccc3C2)c(O)c1
  inhibition (INH): 39.5%
